Literature values, collected in PMC8288134, “Synthesis, potential antitumor activity, cell cycle analysis, and multitarget mechanisms of novel hydrazones incorporating a 4-methylsulfonylbenzene scaffold: a molecular docking study” (Journal of Enzyme Inhibition and Medicinal Chemistry, 2021).

What was measured:
[1] = system: MOLT-4; design: method as in https://dtp.cancer.gov/dtpstandard/dwindex/index.jsp; details: reference drugs, ref https://dtp.cancer.gov/dtpstandard/dwindex/index.jsp; cited from earlier work
[2] = system: prostate cancer tumour cell lines; details: cited from earlier work
[3] = system: MCF7; design: method as in https://dtp.cancer.gov/dtpstandard/dwindex/index.jsp; details: reference drugs, ref https://dtp.cancer.gov/dtpstandard/dwindex/index.jsp; cited from earlier work
[4] = system: IGROV1; design: method as in https://dtp.cancer.gov/dtpstandard/dwindex/index.jsp; details: reference drugs, ref https://dtp.cancer.gov/dtpstandard/dwindex/index.jsp; cited from earlier work
[5] = system: leukaemia tumour cell lines; details: cited from earlier work
[6] = system: ACHN; design: method as in https://dtp.cancer.gov/dtpstandard/dwindex/index.jsp; details: reference drugs, ref https://dtp.cancer.gov/dtpstandard/dwindex/index.jsp; cited from earlier work
[7] = system: OVCAR-8; design: method as in https://dtp.cancer.gov/dtpstandard/dwindex/index.jsp; details: reference drugs, ref https://dtp.cancer.gov/dtpstandard/dwindex/index.jsp; cited from earlier work
[8] = system: SK-MEL-5; design: method as in https://dtp.cancer.gov/dtpstandard/dwindex/index.jsp; details: reference drugs, ref https://dtp.cancer.gov/dtpstandard/dwindex/index.jsp; cited from earlier work
[9] = system: 786-0; design: method as in https://dtp.cancer.gov/dtpstandard/dwindex/index.jsp; details: reference drugs, ref https://dtp.cancer.gov/dtpstandard/dwindex/index.jsp; cited from earlier work
[10] = system: SK-OV-3; design: method as in https://dtp.cancer.gov/dtpstandard/dwindex/index.jsp; details: reference drugs, ref https://dtp.cancer.gov/dtpstandard/dwindex/index.jsp; cited from earlier work
[11] = system: OVCAR-3; design: method as in https://dtp.cancer.gov/dtpstandard/dwindex/index.jsp; details: reference drugs, ref https://dtp.cancer.gov/dtpstandard/dwindex/index.jsp; cited from earlier work
[12] = system: OVCAR-4; design: method as in https://dtp.cancer.gov/dtpstandard/dwindex/index.jsp; details: reference drugs, ref https://dtp.cancer.gov/dtpstandard/dwindex/index.jsp; cited from earlier work
[13] = read-out: GI50 (subpanel average), reference drugs, ref https://dtp.cancer.gov/dtpstandard/dwindex/index.jsp
[14] = read-out: LC50 (subpanel average), reference drugs, ref https://dtp.cancer.gov/dtpstandard/dwindex/index.jsp
[15] = reference drugs, ref https://dtp.cancer.gov/dtpstandard/dwindex/index.jsp

SMILES	GI50 [1]	GI50 [2, 13]	CC50 [2, 14]	TGI (subpanel average) [2, 15]	GI50 [3]	GI50 [4]	GI50 [5, 13]	CC50 [5, 14]	TGI (subpanel average) [5, 15]	GI50 [6]	GI50 [7]	GI50 [8]	GI50 [9]	GI50 [10]	GI50 [11]	GI50 [12]
Cc1ccc(-c2cc(C(F)(F)F)nn2-c2ccc(S(N)(=O)=O)cc2)cc1 [Celecoxib, celecoxib]	15.8 µM	14.2 µM	57 µM	28.37 µM	15.8 µM	15.8 µM	12.3 µM	67.1 µM	29.27 µM	15.8 µM	19.9 µM	15.8 µM	39.8 µM	19.9 µM	15.8 µM	12.6 µM
CS(=O)(=O)c1ccc(C(=O)Nc2ccc(Cl)c(-c3ccccn3)c2)c(Cl)c1 [Vismodegib, vismodegib]	31.6 µM				31.6 µM	100 µM				39.8 µM	31.6 µM	25.1 µM			50.1 µM	39.8 µM
